The source of these data is PubChem BioAssay AID248 (DTP/NCI, 2004).

This test concerns L1210 leukemia ip in BDF1 mice, survival T/C. Description: NCI In Vivo Anticancer Drug Screen. Data for tumor model L1210 Leukemia (intraperitoneal) in B6D2F1 (BDF1) mice. Particulars: endpoint: mean survival time, higher = longer survival. The essentials:
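Transplantable tumor model; survival measured in treated vs vehicle control mice. Value = treated/control.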

[1] abbreviates: dose: 100.0 mg/kg/injection, schedule: Q01DX009 (ip), vehicle: Klucel (hydroxypropylcellulose) (HPC).
[2] abbreviates: dose: 100.0 mg/kg/injection, schedule: Q04DX003 (ip), vehicle: Klucel (hydroxypropylcellulose) (HPC).
Setting [3] is: dose: 200.0 mg/kg/injection, schedule: Q01DX009 (ip), vehicle: Klucel (hydroxypropylcellulose) (HPC).
Setting [4] is: dose: 200.0 mg/kg/injection, schedule: Q04DX003 (ip), vehicle: Klucel (hydroxypropylcellulose) (HPC).
Where [5] appears, read: dose: 400.0 mg/kg/injection, schedule: Q04DX003 (ip), vehicle: Klucel (hydroxypropylcellulose) (HPC).
[6] abbreviates: dose: 100.0 mg/kg/injection, schedule: Q04DX003 (ip), vehicle: saline with Tween-80.
Where [7] appears, read: dose: 200.0 mg/kg/injection, schedule: Q04DX003 (ip), vehicle: saline with Tween-80.
Setting [8] is: dose: 400.0 mg/kg/injection, schedule: Q04DX003 (ip), vehicle: saline with Tween-80.
Where [9] appears, read: dose: 100.0 mg/kg/injection, schedule: Q01DX001 (ip), vehicle: saline.
Where [10] appears, read: dose: 100.0 mg/kg/injection, schedule: Q01DX009 (ip), vehicle: saline with Tween-80.
[11] abbreviates: dose: 200.0 mg/kg/injection, schedule: Q01DX009 (ip), vehicle: saline with Tween-80.
[12] abbreviates: dose: 400.0 mg/kg/injection, schedule: Q01DX009 (ip), vehicle: saline with Tween-80.
The mark [13] stands for this setting: dose: 200.0 mg/kg/injection, schedule: Q01DX001 (ip), vehicle: saline.
Where [14] appears, read: dose: 50.0 mg/kg/injection, schedule: Q01DX009 (ip), vehicle: saline with Tween-80.

Values joined by “and” are separate entries in the source; they are usually repeats but may differ in a detail not shown here. Identical values can stand only once. Toxic doses and inconclusive results are not listed.

For the molecule `O=C(Nc1cccc(Cl)c1)Nc1cccc(Cl)c1`, the T/C under setting [1] is 94 % of control; the T/C under setting [2] was 102 % of control; the T/C under setting [3] is 108 % of control; the T/C under setting [4] is 93 % of control; the T/C (dose: 400.0 mg/kg/injection, schedule: Q01DX009 (ip), vehicle: Klucel (hydroxypropylcellulose) (HPC)) is 101 % of control; the T/C under setting [5] was 100 % of control.

As to `O=C(Nc1ccc(Cl)cc1)C(O)C(O)C(O)C(O)CO` (configuration not stated), the T/C is 100 % of control (dose: 50.0 mg/kg/injection, schedule: Q01DX009 (ip), vehicle: saline); 103 % of control (dose: 100.0 mg/kg/injection, schedule: Q01DX009 (ip), vehicle: saline); 100 % of control (dose: 200.0 mg/kg/injection, schedule: Q01DX009 (ip), vehicle: saline).

Regarding `O=C(O)/C=C/C(=O)NCCNC(=O)/C=C/C(=O)O`, the T/C is, setting by setting: under setting [2], 96 % of control; under setting [4], 93 % of control; under setting [5], 96 % of control.

With `CCN(CC)C(=O)Cn1ccc(O)cc1=O`, the T/C was 109 % of control under setting [6], 98 % of control under setting [7] and 104 % of control under setting [8].

Turning to `N#CC(OC(=O)c1ccccc1)c1ccc([N+](=O)[O-])cc1` (configuration not stated), under setting [9], the T/C is 102 % of control.

For the molecule `N#CC(=C1C=CC(=NO)C=C1)c1ccc(Cl)cc1`, the T/C is, setting by setting: under setting [10], 97 % of control; under setting [6], 96 % of control; under setting [11], 100 % of control; under setting [7], 107 % of control; under setting [12], 103 % of control; under setting [8], 91 % of control.

Turning to `C=C(CCC(=O)OC)C1=C(C)CC2OC(=O)C(=C)C2C1` (configuration not stated), the T/C by setting is: (dose: 50.0 mg/kg/injection, schedule: Q04DX002 (ip), vehicle: saline) 120 % of control; (dose: 100.0 mg/kg/injection, schedule: Q04DX002 (ip), vehicle: saline) 113 % of control; (dose: 200.0 mg/kg/injection, schedule: Q04DX002 (ip), vehicle: saline) 100 % of control.

Take `Nc1nc2c(=O)[nH]cnc2n1C1OC(CO)C(O)C1O` (configuration not stated): the T/C runs as follows: (dose: 5.0 mg/kg/injection, schedule: Q01DX001 (ip), vehicle: saline) 102 % of control; (dose: 10.0 mg/kg/injection, schedule: Q01DX001 (ip), vehicle: saline) 104 % of control; (dose: 20.0 mg/kg/injection, schedule: Q01DX001 (ip), vehicle: saline) 102 % of control.

As to `OC1CSC1.[Cl][Hg][Cl]`, the T/C by setting is: (dose: 5.0 mg/kg/injection, schedule: Q01DX001 (ip), vehicle: carboxymethylcellulose (CMC)) 94 % of control; (dose: 10.0 mg/kg/injection, schedule: Q01DX001 (ip), vehicle: carboxymethylcellulose (CMC)) 100 % of control; (dose: 20.0 mg/kg/injection, schedule: Q01DX001 (ip), vehicle: carboxymethylcellulose (CMC)) 91 % of control.

Turning to `O=C(O)c1c(Br)c(Br)c(Br)c(Br)c1C(=O)Nc1ccc([N+](=O)[O-])cc1`, the T/C is 104 % of control under setting [1]; 96 % of control (dose: 100.0 mg/kg/injection, schedule: Q04DX002 (ip), vehicle: Klucel (hydroxypropylcellulose) (HPC)); 109 % of control under setting [3]; 96 % of control (dose: 200.0 mg/kg/injection, schedule: Q04DX002 (ip), vehicle: Klucel (hydroxypropylcellulose) (HPC)); 107 % of control (dose: 400.0 mg/kg/injection, schedule: Q04DX002 (ip), vehicle: Klucel (hydroxypropylcellulose) (HPC)).

`COC1=CC2C3=C(C(NC=O)CCc4cc(O)c(OC)c(OC)c43)C2C1=O` (configuration not stated): the T/C runs as follows: under setting [6], 101 % of control; under setting [7], 93 % of control; under setting [8], 108 % of control.

Turning to `O=C/C=C\c1ccccc1O`, the T/C under setting [9] is 105 % of control and the T/C under setting [13] was 105 % of control.

On to `Cc1cc2ccccc2c(N)c1C#N`, for which the T/C is 102 % of control and 106 % of control under setting [10]; 93 % of control and 100 % of control (dose: 100.0 mg/kg/injection, schedule: Q04DX002 (ip), vehicle: saline with Tween-80); 92 % of control and 90 % of control under setting [11]; 91 % of control (dose: 200.0 mg/kg/injection, schedule: Q04DX002 (ip), vehicle: saline with Tween-80); 95 % of control under setting [12]; 100 % of control and 88 % of control (dose: 400.0 mg/kg/injection, schedule: Q04DX002 (ip), vehicle: saline with Tween-80).

`CN=C(N)Nc1ccc(NC(=O)c2ccc(C(=O)Nc3ccc(NC(N)=NC)cc3)cc2)cc1`: the T/C reads like this: (dose: 0.25 mg/kg/injection, schedule: Q01DX015 (ip), vehicle: methylcellulose (MC)) 113 % of control; (dose: 0.25 mg/kg/injection, schedule: Q01DX Z (ip), vehicle: carboxymethylcellulose (CMC)) 107 % of control; (dose: 0.5 mg/kg/injection, schedule: Q01DX015 (ip), vehicle: methylcellulose (MC)) 110 % of control; (dose: 0.5 mg/kg/injection, schedule: Q01DX Z (ip), vehicle: carboxymethylcellulose (CMC)) 123 % of control; (dose: 1.0 mg/kg/injection, schedule: Q01DX Z (ip), vehicle: carboxymethylcellulose (CMC)) 156 % of control; (dose: 2.0 mg/kg/injection, schedule: Q01DX015 (ip), vehicle: methylcellulose (MC)) 236 % of control. Also, the T/C (dose: 2.0 mg/kg/injection, schedule: Q01DX Z (ip), vehicle: carboxymethylcellulose (CMC)) is 231 % of control and 254 % of control; the T/C (dose: 4.0 mg/kg/injection, schedule: Q01DX015 (ip), vehicle: methylcellulose (MC)) is 228 % of control; the T/C (dose: 4.0 mg/kg/injection, schedule: Q01DX Z (ip), vehicle: carboxymethylcellulose (CMC)) was 211 % of control; the T/C (dose: 16.0 mg/kg/injection, schedule: Q01DX015 (ip), vehicle: methylcellulose (MC)) is 93 % of control; the T/C (dose: 17.0 mg/kg/injection, schedule: Q01DX Z (ip), vehicle: carboxymethylcellulose (CMC)) is 100 % of control; the T/C (dose: 30.0 mg/kg/injection, schedule: Q01DX001 (ip), vehicle: methylcellulose (MC)) was 163 % of control and 211 % of control. In addition, the T/C was 98 % of control (dose: 62.0 mg/kg/injection, schedule: Q01DX Z (oral), vehicle: carboxymethylcellulose (CMC)); 101 % of control (dose: 125.0 mg/kg/injection, schedule: Q01DX Z (oral), vehicle: carboxymethylcellulose (CMC)); 105 % of control (dose: 250.0 mg/kg/injection, schedule: Q01DX Z (oral), vehicle: carboxymethylcellulose (CMC)); 105 % of control (dose: 500.0 mg/kg/injection, schedule: Q01DX Z (oral), vehicle: carboxymethylcellulose (CMC)).

For the molecule `O=NN(Cc1ccccc1)C(c1ccccc1)S(=O)(=O)O` (configuration not stated), the T/C is, setting by setting: (dose: 75.0 mg/kg/injection, schedule: Q01DX009 (ip), vehicle: saline) 87 % of control; under setting [9], 112 % of control; (dose: 150.0 mg/kg/injection, schedule: Q01DX009 (ip), vehicle: saline) 87 % of control; under setting [13], 100 % of control; (dose: 300.0 mg/kg/injection, schedule: Q01DX009 (ip), vehicle: saline) 97 % of control; (dose: 400.0 mg/kg/injection, schedule: Q01DX001 (ip), vehicle: saline) 93 % of control.

With `Cc1cc(N(C)C)cc(C)c1N=Nc1cc[n+]([O-])cc1`, the T/C (dose: 12.5 mg/kg/injection, schedule: Q04DX003 (ip), vehicle: saline with Tween-80) was 98 % of control; the T/C (dose: 25.0 mg/kg/injection, schedule: Q04DX003 (ip), vehicle: saline with Tween-80) is 98 % of control; the T/C under setting [14] is 95 % of control; the T/C (dose: 50.0 mg/kg/injection, schedule: Q04DX003 (ip), vehicle: saline with Tween-80) was 100 % of control; the T/C under setting [10] is 91 % of control; the T/C under setting [11] was 91 % of control.

For the molecule `COc1ccc2c3c1OC1C=CC(O)C4C(C2)N(C)CCC314` (configuration not stated), the T/C reads like this: under setting [9], 98 % of control; under setting [13], 89 % of control.

Take `CC/C(=C/c1cccc(OC)c1OC)[N+](=O)[O-]`: the T/C (dose: 12.5 mg/kg/injection, schedule: Q01DX009 (ip), vehicle: saline with Tween-80) is 105 % of control; the T/C (dose: 25.0 mg/kg/injection, schedule: Q01DX009 (ip), vehicle: saline with Tween-80) was 98 % of control; the T/C under setting [14] is 96 % of control; the T/C under setting [6] is 107 % of control; the T/C under setting [7] is 90 % of control.
